Key:
[1] = Metabolic stability in human liver S9 fractions (half-life in vitro); assay type: in vitro ADME; settings: pH 7.2, Human S9 ½ life in-vitro, read-out: half-life in human S9 cells
Description: Generally, a FAAH inhibitor was incubated in human liver S9 fractions. Incubations were conducted at 37° C. in a potassium phosphate buffer (pH 7.2). NADPH and a regenerating system consisting of NADP, glucose 6-phosphate dehydrogenase were provided to the incubates. Incubations were terminated by the addition of methanol and freezing at −80° C. See, e.g., Singh, R. et al. Rapid Commun. Mass Spectrom., 10: 1019-26 (1996).

FAAH = biological target: T1, FAAH (Homo sapiens, UniProt O00519); experiment: FAAH LC-MS/MS screening assay (anandamide hydrolysis by human liver microsomes); settings: inhibitor at 30 nM, 60 minute incubation at 37° C.
T1 sequence (O00519 1-579): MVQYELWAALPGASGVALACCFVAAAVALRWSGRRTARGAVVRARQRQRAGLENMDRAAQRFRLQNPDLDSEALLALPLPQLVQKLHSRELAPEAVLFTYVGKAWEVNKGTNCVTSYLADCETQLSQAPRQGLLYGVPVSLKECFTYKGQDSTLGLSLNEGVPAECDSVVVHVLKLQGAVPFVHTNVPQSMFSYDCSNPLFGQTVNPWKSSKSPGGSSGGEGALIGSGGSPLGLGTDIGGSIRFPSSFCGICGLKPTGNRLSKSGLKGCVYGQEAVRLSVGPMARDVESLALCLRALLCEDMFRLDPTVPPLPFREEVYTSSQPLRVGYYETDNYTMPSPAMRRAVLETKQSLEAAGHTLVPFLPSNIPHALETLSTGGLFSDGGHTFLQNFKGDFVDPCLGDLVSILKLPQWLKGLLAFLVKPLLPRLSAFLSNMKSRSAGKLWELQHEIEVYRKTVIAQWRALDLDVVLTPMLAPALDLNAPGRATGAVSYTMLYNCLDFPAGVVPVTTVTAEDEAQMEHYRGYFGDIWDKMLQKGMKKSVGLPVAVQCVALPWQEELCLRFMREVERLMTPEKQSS
Description: The following are combined in a 5-mL glass tube: anandamide (5 μL of 200 ug/mL), 960 μL of 50 mM ammonium phosphate buffer (pH 7.4) containing 0.125% BSA (w/v), 10 μL of DMSO without (control) or with a FAAH inhibitor (1 μg/mL), and 25 μL of human liver microsomes (31.3/g). Prior to incubation, a 100 μL aliquot is transferred to a 96-well plate containing 0.25 mL of acetonitrile and D4 (deuterated) anandamide (0.2 #M). Each 5-mL tube is capped and placed in a shaking water bath maintained at 37° C. for 60 minutes. After a 60 minute incubation, a second 100 μL aliquot is transferred to a 96-well plate as performed earlier. The 96-well plate is then capped, vortex mixed, and placed on an HPLC for liquid chromatography/tandem mass spectrometry (LC/MS/MS) analyses. HPLC is carried out on a Waters 2790 Alliance system (Milford, Mass.). […] The samples are analyzed using an electrospray probe in the positive ionization mode with the cone voltage set at 40 V and capillary at 3.2 kV. […] An area ratio response (anandamide area response/D4 anandamide area response) was determined for each sample. Percent anandamide hydrolysis of each sample is determined by the following equation, [(T=0 response)−(T=60 response)/T=0 response]*100. The percent hydrolysis normalized to control is determined by dividing the % hydrolysis of test sample by the % hydrolysis of the control sample.

| Compound | half-life [1] | anandamide hydrolysis compared to the control (FAAH) |
| --- | --- | --- |
| NC(=O)c1cccc(-c2cccc(OC(=O)NC3CCCCC3)c2)c1 [KDS-4103] | ~30 min | 30% |
| CC1(C)CCC(NC(=O)Oc2cccc(-c3cccc(C(N)=O)c3)c2)CC1 [Example 1, (4,4-dimethylcyclohexyl)carbamic acid 3′carbamoylbiphenyl-3-yl ester] | – | < 50% |

From patent publication US20080119549A1, “METABOLICALLY-[…] FATTY ACID AMIDE HYDROLASE” (N.V. Organon, priority 2006, published 2008)
